Laboratory results taken from ChEMBL document CHEMBL1201862, “PubChem BioAssay data set” (2004).
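Cultured in 96-well plates, cells were exposed to test compound for 48 hours across five concentrations. The concentration for 50% growth inhibition is given as GI50.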 Active and inactive are the calls of the source. No stated cut-off is given here; in the data, active = GI50 up to about 1.1 µM and inactive = higher.

Experiments:
Assay in all cases: NCI anticancer screen, dose series, 48 h
MDA-MB-231 = test system: MDA-MB-231
RPMI-8226 = test system: RPMI-8226
SNB-75 = test system: SNB-75
SK-MEL-5 = test system: SK-MEL-5
PC-3 = test system: PC-3
NCI-H522 = test system: NCI-H522
MCF7 = test system: MCF7
IGROV-1 = test system: IGROV-1
Malme-3M = test system: Malme-3M
NCI-H23 = test system: NCI-H23
CAKI-1 = test system: CAKI-1
HL-60 = test system: HL-60
NCI/ADR-RES = test system: NCI/ADR-RES
UO-31 = test system: UO-31
TK-10 = test system: TK-10
SK-MEL-2 = test system: SK-MEL-2
HCT-15 = test system: HCT-15
SF-295 = test system: SF-295
UACC-257 = test system: UACC-257
K562 = test system: K562
LOX IMVI = test system: LOX IMVI
UACC-62 = test system: UACC-62
NCI-H226 = test system: NCI-H226
COLO 205 = test system: COLO 205
MDA-MB-435 = test system: MDA-MB-435
SK-OV-3 = test system: SK-OV-3
Hs-578T = test system: Hs-578T
CCRF-CEM = test system: CCRF-CEM
OVCAR-8 = test system: OVCAR-8
OVCAR-4 = test system: OVCAR-4
M14 = test system: M14
MDA-N = test system: MDA-N
U-251 = test system: U-251
A498 = test system: A498
HCT-116 = test system: HCT-116
786-0 = test system: 786-0
ACHN = test system: ACHN
BT-549 = test system: BT-549
MOLT-4 = test system: MOLT-4
SR = test system: SR
NCI-H460 = test system: NCI-H460
KM12 = test system: KM12
EKVX = test system: EKVX
HOP-62 = test system: HOP-62
SF-539 = test system: SF-539
T47D = test system: T47D
OVCAR-5 = test system: OVCAR-5
RXF 393 = test system: RXF 393
OVCAR-3 = test system: OVCAR-3
A549 = test system: A549
HT-29 = test system: HT-29
SN12C = test system: SN12C
SF-268 = test system: SF-268
DU-145 = test system: DU-145
SK-MEL-28 = test system: SK-MEL-28
SW-620 = test system: SW-620
SNB-19 = test system: SNB-19
HCC 2998 = test system: HCC 2998

Measured: GI50

Cc1ncc([N+](=O)[O-])n1CCN(C)C(=O)CCCn1ccnc1[N+](=O)[O-]
> 100 µM: HCT-15
inactive: MDA-MB-231 > 100 µM | RPMI-8226 > 100 µM | SNB-75 > 100 µM | SK-MEL-5 > 100 µM | PC-3 > 100 µM | NCI-H522 > 100 µM | MCF7 > 100 µM | IGROV-1 > 100 µM | Malme-3M > 100 µM | NCI-H23 > 100 µM | CAKI-1 > 100 µM | HL-60 > 100 µM | NCI/ADR-RES > 100 µM | UO-31 > 100 µM | TK-10 > 100 µM | SK-MEL-2 > 100 µM | SF-295 > 100 µM | UACC-257 > 100 µM | K562 > 100 µM | LOX IMVI > 100 µM | UACC-62 > 100 µM | NCI-H226 > 100 µM | COLO 205 > 100 µM | MDA-MB-435 > 100 µM | SK-OV-3 > 100 µM | Hs-578T > 100 µM | CCRF-CEM > 100 µM | OVCAR-8 > 100 µM | OVCAR-4 > 100 µM | M14 > 100 µM | MDA-N > 100 µM | U-251 > 100 µM | A498 > 100 µM | HCT-116 > 100 µM | 786-0 > 100 µM | ACHN > 100 µM | BT-549 > 100 µM | MOLT-4 > 100 µM | SR > 100 µM | NCI-H460 > 100 µM | KM12 > 100 µM | EKVX > 100 µM | HOP-62 > 100 µM | SF-539 > 100 µM | T47D > 100 µM | OVCAR-5 > 100 µM | RXF 393 > 100 µM | OVCAR-3 > 100 µM | A549 > 100 µM | HT-29 > 100 µM | SN12C > 100 µM | SF-268 > 100 µM | DU-145 > 100 µM | SK-MEL-28 > 100 µM | SW-620 > 100 µM

COP(=O)(C(/C=C/c1ccccc1)OC(C)=O)[C@@H]1CCCC[C@H]1N(CC(C)(C)C)C(C)=O (some centres not stated)
inactive: MDA-MB-231 14.8 µM | SNB-75 3.94 µM | SK-MEL-5 14 µM | SNB-19 29 µM | PC-3 14 µM | NCI-H522 12.1 µM | MCF7 22.5 µM | IGROV-1 10.6 µM | Malme-3M 18.2 µM | NCI-H23 15.8 µM | CAKI-1 28 µM | HL-60 14.6 µM | HCC 2998 12.6 µM | NCI/ADR-RES 15.1 µM | UO-31 13.9 µM | TK-10 20.2 µM | SK-MEL-2 15.4 µM | SF-295 16.3 µM | UACC-257 14.3 µM | K562 22.4 µM | LOX IMVI 15.8 µM | UACC-62 14 µM | NCI-H226 12 µM | COLO 205 13.9 µM | MDA-MB-435 14.5 µM | SK-OV-3 23.1 µM | Hs-578T 12.8 µM | CCRF-CEM 14.5 µM | OVCAR-8 16.8 µM | OVCAR-4 5.62 µM | M14 14.4 µM | MDA-N 15.6 µM | U-251 15.8 µM | HCT-116 10.9 µM | 786-0 17.3 µM | ACHN 16.3 µM | BT-549 16.8 µM | MOLT-4 7.93 µM | SR 15 µM | NCI-H460 13.4 µM | KM12 26.2 µM | EKVX 20.7 µM | HOP-62 18.2 µM | SF-539 17.9 µM | T47D 5.87 µM | OVCAR-5 19.2 µM | RXF 393 7.29 µM | OVCAR-3 14.5 µM | A549 16.8 µM | HT-29 10.2 µM | SN12C 14.8 µM | SF-268 16.6 µM | DU-145 15 µM | SK-MEL-28 20.4 µM | SW-620 16.7 µM
15.9 µM: HCT-15
